Results published in ChEMBL document CHEMBL1201862, “PubChem BioAssay data set” (2004).
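Compound exposure: 48 hours, 5 concentrations, 96-well plates. Here, GI50 denotes the concentration required for 50% inhibition of growth.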 Calls of active or inactive are those of the source. Cut-off read from the data, not from the text of the source: active = GI50 up to about 1.1 µM and inactive = higher.

What was measured:
Experiment in all cases: NCI-60 cell line screen, 48 h
NCI-H226 = tested on: NCI-H226
Hs-578T = tested on: Hs-578T
HT-29 = tested on: HT-29
SF-295 = tested on: SF-295
SK-MEL-2 = tested on: SK-MEL-2
T47D = tested on: T47D
HCT-15 = tested on: HCT-15
786-0 = tested on: 786-0
SK-OV-3 = tested on: SK-OV-3
A498 = tested on: A498
RPMI-8226 = tested on: RPMI-8226
MDA-MB-435 = tested on: MDA-MB-435
MOLT-4 = tested on: MOLT-4
HOP-92 = tested on: HOP-92
MCF7 = tested on: MCF7
CCRF-CEM = tested on: CCRF-CEM
HOP-62 = tested on: HOP-62
SN12C = tested on: SN12C
COLO 205 = tested on: COLO 205
BT-549 = tested on: BT-549

Row | SMILES | GI50 (NCI-H226) | GI50 (Hs-578T) | GI50 (HT-29) | GI50 (SF-295) | GI50 (SK-MEL-2) | GI50 (T47D) | GI50 (HCT-15) [µM] | GI50 (786-0) | GI50 (SK-OV-3) | GI50 (A498) | GI50 (RPMI-8226) | GI50 (MDA-MB-435) | GI50 (MOLT-4) | GI50 (HOP-92) | GI50 (MCF7) | GI50 (CCRF-CEM) | GI50 (HOP-62) | GI50 (SN12C) | GI50 (COLO 205) | GI50 (BT-549)
1 | O=[N+]([O-])c1ccc(/C=N/n2c(S)nnc2CCc2nnc(S)n2/N=C/c2ccc([N+](=O)[O-])o2)o1 | > 100 µM (inactive) | 25.5 µM (inactive) | 29.3 µM (inactive) | > 100 µM (inactive) | 18.5 µM (inactive) | 23.1 µM (inactive) | 15.9 | 17.1 µM (inactive) | > 100 µM (inactive) | > 100 µM (inactive) | 29.4 µM (inactive) | 17.6 µM (inactive) | 24.8 µM (inactive) | 17.2 µM (inactive) | 18.1 µM (inactive) | 20 µM (inactive) | 24 µM (inactive) | – | – | –
2 | Cn1ccnc1S/C(=C\C=C(C#N)C#N)c1ccc(Cl)cc1 | – | 4.38 µM (inactive) | 1.67 µM (inactive) | 2.87 µM (inactive) | – | 4.42 µM (inactive) | 2.52 | 1.33 µM (inactive) | 8.07 µM (inactive) | 1.27 µM (inactive) | – | 0.951 µM (active) | 1.18 µM (inactive) | 1.31 µM (inactive) | 0.698 µM (active) | 0.126 µM (active) | 4.17 µM (inactive) | 1.09 µM (active) | 2.99 µM (inactive) | –
3 | Clc1ccc(Cl)c(/N=N\c2cc3c4c(c2)CCN4CCC3)c1 | > 10 µM (inactive) | > 10 µM (inactive) | > 10 µM (inactive) | > 10 µM (inactive) | > 10 µM (inactive) | > 10 µM (inactive) | > 10 | > 10 µM (inactive) | > 10 µM (inactive) | > 10 µM (inactive) | > 10 µM (inactive) | > 10 µM (inactive) | > 10 µM (inactive) | > 10 µM (inactive) | > 10 µM (inactive) | > 10 µM (inactive) | > 10 µM (inactive) | > 10 µM (inactive) | > 10 µM (inactive) | –
4 | COc1cc(OC)c(C2c3cc4c(cc3OC(N3CCOCC3)C2C)OCO4)c(OC)c1 (stereo not given) | – | 2.45 µM (inactive) | 21.9 µM (inactive) | 14.7 µM (inactive) | > 100 µM (inactive) | 17.7 µM (inactive) | 17.4 | 40.7 µM (inactive) | – | – | 20.2 µM (inactive) | 38.7 µM (inactive) | 21.4 µM (inactive) | – | 37.8 µM (inactive) | 33.8 µM (inactive) | > 100 µM (inactive) | 67 µM (inactive) | 35.2 µM (inactive) | –
5 | Cc1ccc(-c2c(C#N)c(-c3ccc(C)cc3)n(NS(=O)(=O)c3ccccc3)c(=O)c2C#N)cc1 | > 100 µM (inactive) | > 100 µM (inactive) | 41.7 µM (inactive) | 32.5 µM (inactive) | 57.4 µM (inactive) | – | 39.4 | 54.1 µM (inactive) | 53.8 µM (inactive) | 51.2 µM (inactive) | 14.7 µM (inactive) | 61.1 µM (inactive) | 25.2 µM (inactive) | 28.6 µM (inactive) | 24 µM (inactive) | 24.4 µM (inactive) | 49.2 µM (inactive) | 62.2 µM (inactive) | 89.5 µM (inactive) | 25.4 µM (inactive)
6 | O=S1(=O)OCCOS(=O)(=O)C1Cc1nc2ccccc2[nH]1 | – | – | 51.2 µM (inactive) | 24.7 µM (inactive) | 72.3 µM (inactive) | – | 26 | 39.7 µM (inactive) | – | – | 34.3 µM (inactive) | 51.2 µM (inactive) | 24.2 µM (inactive) | 0.114 µM (active) | 33.7 µM (inactive) | 33 µM (inactive) | 26.8 µM (inactive) | 35.2 µM (inactive) | 83.2 µM (inactive) | > 10 µM (inactive)
7 | COC(=O)[C@@H]1O[C@]12C(CO[Si](C)(C)C(C)(C)C)OC(n1ccc(=O)[nH]c1=O)C2O[Si](C)(C)C(C)(C)C (stereo not given in full) | 0.435 µM (active) | – | 7.93 µM (inactive) | 21.8 µM (inactive) | 17.4 µM (inactive) | – | 28.3 | 20.6 µM (inactive) | 50.8 µM (inactive) | > 10 µM (inactive) | 8.85 µM (inactive) | 23.6 µM (inactive) | 8.36 µM (inactive) | 27.4 µM (inactive) | 12.4 µM (inactive) | > 100 µM (inactive) | 24 µM (inactive) | 30.6 µM (inactive) | 24.1 µM (inactive) | 17.5 µM (inactive)
8 | Clc1cc(N/N=C(/c2ccccc2)c2ncccn2)ncn1 | 56.4 µM (inactive) | 24.5 µM (inactive) | 2.58 µM (inactive) | 24.6 µM (inactive) | 32.7 µM (inactive) | – | 17.9 | 21.7 µM (inactive) | 19.1 µM (inactive) | – | 16.5 µM (inactive) | 48.3 µM (inactive) | 5.87 µM (inactive) | 14.7 µM (inactive) | 14.8 µM (inactive) | 4.53 µM (inactive) | 26.8 µM (inactive) | 29.2 µM (inactive) | 4.29 µM (inactive) | 38.5 µM (inactive)
9 | CC(=O)Oc1ccc2c(C)cc(=O)oc2c1OC(C)=O | 30.6 µM (inactive) | 24.2 µM (inactive) | 29.9 µM (inactive) | 47.5 µM (inactive) | > 100 µM (inactive) | – | 21.1 | 37.2 µM (inactive) | > 100 µM (inactive) | 37.7 µM (inactive) | 24.5 µM (inactive) | 63.4 µM (inactive) | 34.5 µM (inactive) | – | 49.4 µM (inactive) | 5.4 µM (inactive) | 46.5 µM (inactive) | 57.8 µM (inactive) | 42.8 µM (inactive) | –
10 | CCc1ccc2oc(=O)ccc2c1 | > 100 µM (inactive) | > 100 µM (inactive) | > 100 µM (inactive) | > 100 µM (inactive) | > 100 µM (inactive) | – | > 100 | > 100 µM (inactive) | – | > 100 µM (inactive) | 91 µM (inactive) | > 100 µM (inactive) | > 100 µM (inactive) | > 100 µM (inactive) | > 100 µM (inactive) | > 100 µM (inactive) | > 100 µM (inactive) | > 100 µM (inactive) | > 100 µM (inactive) | > 100 µM (inactive)
11 | COc1ccc(C2N(c3ccc(C)c(N=C=O)c3)C(=O)N3C(c4ccc(OC)cc4)N(c4ccc(C)c(N=C=O)c4)C(=O)N23)cc1 (stereo not given) | > 100 µM (inactive) | – | > 100 µM (inactive) | > 100 µM (inactive) | 49.7 µM (inactive) | – | > 100 | > 100 µM (inactive) | – | 44 µM (inactive) | > 100 µM (inactive) | > 100 µM (inactive) | > 100 µM (inactive) | 83.2 µM (inactive) | > 100 µM (inactive) | > 100 µM (inactive) | > 100 µM (inactive) | > 100 µM (inactive) | 62.4 µM (inactive) | > 100 µM (inactive)
12 | CC(=O)Nc1ccc(NCC(=O)Nn2cnc3ccc(S(=O)(=O)Nc4ccc(NC(C)=O)cc4)cc3c2=O)cc1 | > 100 µM (inactive) | > 100 µM (inactive) | > 100 µM (inactive) | > 100 µM (inactive) | > 100 µM (inactive) | – | > 100 | > 100 µM (inactive) | > 100 µM (inactive) | – | > 100 µM (inactive) | > 100 µM (inactive) | > 100 µM (inactive) | > 100 µM (inactive) | > 100 µM (inactive) | > 100 µM (inactive) | > 100 µM (inactive) | > 100 µM (inactive) | > 100 µM (inactive) | > 100 µM (inactive)
13 | CC[N+](C)(CC)CCNC(=O)C(O)(c1ccccc1)c1ccccc1 | > 100 µM (inactive) | – | > 100 µM (inactive) | > 100 µM (inactive) | – | – | > 100 | > 100 µM (inactive) | > 100 µM (inactive) | – | > 100 µM (inactive) | – | > 100 µM (inactive) | > 100 µM (inactive) | > 100 µM (inactive) | > 100 µM (inactive) | > 100 µM (inactive) | > 100 µM (inactive) | > 100 µM (inactive) | > 100 µM (inactive)
14 | CC(C)=C1CCC(CN2CCOCC2)C1=O (stereo not given) | 21.2 µM (inactive) | 28.2 µM (inactive) | 8.65 µM (inactive) | 98.4 µM (inactive) | 19 µM (inactive) | – | 5.22 | 3.79 µM (inactive) | > 100 µM (inactive) | 33.7 µM (inactive) | 0.953 µM (active) | 15.3 µM (inactive) | 2.34 µM (inactive) | 3.95 µM (inactive) | 4.14 µM (inactive) | 2.49 µM (inactive) | > 55.5 µM (inactive) | 8.59 µM (inactive) | 4.66 µM (inactive) | 17.3 µM (inactive)
15 | CC(C)C(NCc1c(O)ccc2c(-c3ccccc3)cc(=O)oc12)C(=O)O (stereo not given) | > 100 µM (inactive) | > 100 µM (inactive) | > 100 µM (inactive) | > 100 µM (inactive) | > 100 µM (inactive) | > 100 µM (inactive) | > 100 | > 100 µM (inactive) | > 100 µM (inactive) | – | > 100 µM (inactive) | > 100 µM (inactive) | > 100 µM (inactive) | > 100 µM (inactive) | > 100 µM (inactive) | > 100 µM (inactive) | > 100 µM (inactive) | > 100 µM (inactive) | > 100 µM (inactive) | –
16 | N#Cc1c(-c2ccc(Cl)cc2)c(C#N)c(=O)n(NS(=O)(=O)c2ccccc2)c1S | 30.3 µM (inactive) | – | – | 34.2 µM (inactive) | 47.3 µM (inactive) | – | 21.9 | 17.2 µM (inactive) | 87.5 µM (inactive) | 27.7 µM (inactive) | 23.9 µM (inactive) | 23.5 µM (inactive) | 21.6 µM (inactive) | 44.7 µM (inactive) | 32.6 µM (inactive) | 5.79 µM (inactive) | – | 25.2 µM (inactive) | 30.5 µM (inactive) | 25.9 µM (inactive)
